Measured values: patent US12569554B2, “Triterpene saponin analogues” (priority 2017, dated 2026)
Read-outs that look alike come from different tables or passages of the source.

How the values were obtained:
[1] = format: in vivo, mice; conditions: for body weight loss: 50 mcg TiterQuil-1055, 20 mcg QS-21
Protocol: (§1) Adacel doses containing 1, 0.3, and 0.1 mcg of pertussis toxin per mouse were administered subcutaneously (SC, with no immunological adjuvant), using 2 vaccinations 4 weeks apart, resulting in a mean of 1,618 mcg, 898 mcg, and 107 mcg respectively of anti-PT antibody per ml of serum drawn 2 weeks after the second vaccination. The 0.1 mcg dose was indistinguishable from unvaccinated controls (96 mcg/ml). A 0.5 mcg dose of Adacel was selected for a pharmacology/toxicology (pharm/tox) study. The serological results for this study are summarized in FIG. 3 of the present application.
(§2) A pharm/tox study was conducted in 7 groups of 5 mice: 1) PBS alone, 2) 50 mcg TiterQuil-1055, 3) 20 mcg QS-21, 4) Adacel 2.5 mcg pertussis toxin (1/5 the human dose), 5) Adacel+QS-21 (20 mcg QS-21), 6) Adacel+TiterQuil-1055 (50 mcg), 7) Adacel+TiterQuil-1055 (50 mcg). Mice were vaccinated SC on days 1 and 15, weighed daily, and bled and sacrificed on day 22, except for group 7 which was sacrificed on day 29. […] Histopathology of 33 different tissues was performed on all mice. Detected abnormalities were restricted to the liver. […] This abnormality was short lived and was no detected in group 7, which was sacrificed one week after groups 1-6.

Stability at 37° C. = format: physicochemical; conditions: for degraded: after two weeks at 37° C.
Protocol: (§3) Natural and synthetic QS-21 (SQS-21 or SAPONEX®) and a variety of analogs were tested for hemolytic activity.

[2] = Engerix-B study, body weight; format: in vivo, mice
[3] = Companion toxicity study, body mass; format: in vivo, mice; conditions: three days after immunization
Protocol: as §3

mice [4] = test: Adacel pharm/tox study, serology with TiterQuil-1055 or QS-21; format: in vivo; conditions: for augmentation of antibody levels compared to immunization with Adacel alone: adjuvant given with Adacel
Protocol: as §1, §2

Hemolytic assay = format: cell-based
Protocol: as §3

mice [5] = test: Pilot pharmacology/toxicology study: blood chemistry, hematology, histopathology; format: in vivo; conditions: 50 mcg TiterQuil-1055, 20 mcg QS-21, Adacel 2.5 mcg pertussis toxin, alone or combined; for changes in blood chemistry or hematology results: SC days 1 and 15; for liver histopathology, hepatocellular cytoplasmic vacuolization: SC days 1 and 15, sacrificed day 22
Protocol: as §2

mice [6] = test: Engerix-B immunogenicity, anti-HBsAg antibody; format: in vivo
Protocol: Experiments were conducted with Engerix-B (HBV adult vaccine) in groups of 10 mice. Initially 3 mcg, 1 mcg, 0.3 mcg, 0.1 mcg, and 0.03 mcg Engerix-B doses per mouse were tested.

humans = conditions: cited from earlier work
[7] = groups of 5 mice, 2 weeks after second SC immunization

CC1O[C@@H](OC2C(O)[C@@H](NC(=O)CCCCCCCCCCC(=O)O)C(CO)O[C@H]2OC(=O)[C@]23CCC(C)(C)CC2C2=CCC4C5(C)CC[C@H](O)C(C)(C=O)C5CCC4(C)C2(C)CC3O)C(O)C(O)[C@H]1O[C@@H]1OC[C@@H](O)C(O)C1O (stereo partly shown) [Compound I-4]
weight loss ([1]; 50 mcg TiterQuil-1055, 20 mcg QS-21, Adacel 2.5 mcg pertussis toxin, alone or combined, SC days 1 and 15, weighed daily): no other mice | body weight loss [1]: No weight loss | degraded (Stability at 37° C.): without detectable degradation | stability (Stability at 37° C.; compared with QS-21): increased stability | weight loss ([2]; 30 mcg TiterQuil-1055 dose): No weight loss | weight loss ([2]; 100 mcg TiterQuil-1055 dose): 4% | weight loss ([2]; 300 mcg TiterQuil-1055 dose): 5% | body mass gained on average [3]: 5% | antibody levels 2 weeks later (mice [4]; Adacel with TiterQuil-1055, a further 2 weeks later): further increased | antibody levels (mice [4]; groups of 5 mice, 2 weeks after second SC immunization, Adacel alone or Adacel with TiterQuil-1055): 52,344 | augmentation of antibody levels compared to immunization with Adacel alone (mice [4]; [7]): 70 fold | hemolytic activity (Hemolytic assay): much lower or undetectable hemolytic activity | changes in blood chemistry or hematology results (mice [5]): No changes | liver histopathology, hepatocellular cytoplasmic vacuolization (mice [5]): No changes at all | serologic effect (mice [6]; 10 mcg TiterQuil-1055 mixed with 0.3 mcg Engerix-B): no serologic effect | increase in antibody levels compared to Engerix-B alone (mice [6]; 30 mcg TiterQuil-1055 mixed with 0.3 mcg Engerix-B): > 6 fold | increase in antibody levels compared to Engerix-B alone (mice [6]; 100 mcg TiterQuil-1055 mixed with 0.3 mcg Engerix-B): 5 fold | antibody response at higher adjuvant doses (mice [6]; TiterQuil-1055 doses above 50 mcg per mouse): Lack of antibody increase or decreasing responses

QS-21 [reference compound]
body weight loss [1]: 8-9% | tolerated dose in cancer patients (humans; cancer patients, above it local and systemic side effects): 100 to 150 µg | maximum dose for healthy patients (humans; healthy patients): ~50 µg | highest practical tolerable dose (humans; well (non-cancer) adult and child recipients): 25 to 50 µg | degraded (Stability at 37° C.): 20% | body mass lost on average ([3]; 20 mcg QS-21): 8-10% | augmentation of antibody levels compared to immunization with Adacel alone (mice [4]; [7]): 10 fold | hemolytic activity (Hemolytic assay): highly hemolytically active | changes in blood chemistry or hematology results (mice [5]): No changes | liver histopathology, hepatocellular cytoplasmic vacuolization (mice [5]): Mild vacuolar changes
